# Results published in patent EP0793481B1, “COSMETIC COMPOSITION CONTAINING HYDROXY ALKANOATE DERIVATIVES” (priority 1993, dated 1995).
# Read-outs that look alike come from different tables or passages of the source.
# Assays:
# [1] = Penetration of acyl lactylates: serial tape stripping of skin and lactate assay (Sigma 735-10) of the tapes; conditions: result in words; 10% by weight solutions, four hours
# Procedure: The penetration of acyl lactylate and lactic acid in this manner can be determined by serial tape stripping and by biochemical assay of free lactate from skin cells adhering to the tape.
# The methodology employed using pig skin is as follows:
# The tape employed in this test is Desquame tape available from Diastron. Following topical application to skin of acyl lactylate, pieces of this tape are applied to the skin and then removed, and skin cells are assayed for lactate using Sigma 735-10 lactate assay kit. Thus, by repeated stripping of the same area of skin the degree of penetration of the topically applied acyl lactylate and its cleavage by epidermal esterases can be determined.
# 10% by weight solutions of sodium lactate (control) and of five different sodium acyl lactylates having from C8 to C18 acyl chains, were prepared in pH 7.0 Sorenson's phosphate buffer, 5 mM. Seven pieces of full thickness skin, taken from pig ear, were cut to 4 x 4cm and pinned out. 100 µl aliquots of the 6 test solutions were applied to the entire surface of six pieces of skin, the remaining piece of skin was used as a no-treatment control. […]
# Each tape was placed in a labelled 1ml tube and 800µl of 5.00mM phosphate buffer, pH 7.00 was added to each tube. […] The buffer reagent mixture from each tube was then transferred to microcuvettes and the absorbtion of the solutions measured at 540nm using a spectrophotometer.
# [2] = Measurement of skin conductivity (SKICON 200) as index of skin moisturisation, panel of volunteers; format: in vivo, human; conditions: for mean adjusted SKICON 200 readings: 100mM in buffer (3.0%), 100µl, relative to pretreatment reading
# Source text: The topical application to skin of hydroxyalkanoate derivatives improves the retention of moisture by the skin and/or increases the level of moisture in the skin to a significant extent. […] An increase in skin conductivity is thus used as an index of increase in skin moisturisation.
# This method measures the cumulative effect of applying products to the skin, on the conductivity of the superficial stratum corneum.
# It is well established that the conductivity of the skin, as measured by placing the probe of a suitable conductivity meter in contact with the skin, is proportional to the water content of the outermost strata of the epidermis. The measurement of skin conductivity can therefore be used to indicate the ability of a topically applied product to hydrate the epidermis: see D. van Neste, J. Dermatol Sci., 2, p119 - 124, (1991), "Comparative Study of Normal and Rough Human Skin Hydration in vivo: evaluation with four different instruments". The method is widely used and accepted as indicative of product skin moisturisation efficacy.
# The device for measuring skin conductivity employed in this test is the SKICON 200, a skin hygrometer available from IBS Co.
# A small panel of volunteers, greater than six in number and preferably from 12 to 20, is recruited for the test.
# Two sites 3 x 4cm are marked onto each volar forearm at least 6cm from either the wrist or elbow and with a separation of at least 6cm. Each site is treated once a day for five consecutive days with 100µl of a single treatment material. Allocation of material to left or right arm, upper or lower site is varied to avoid site effects. A total of two treatment materials can be used, one site per panellist remaining untreated for the entire five day period.
# On the first day of the test, panellists are allowed to equilibrate in a climate controlled environment (20°C 70% RH for 15 minutes with no significant sensory stimuli). Eight conductivity measurements are taken per site using random positions within the test site; these represent the baseline. 100µl of treatment material is then applied and gently rubbed into the test site for each of the three treatment sites. Further four sets of eight readings from the treatment sites are then taken one, two and four hours after application, again using the equilibration period in a climate controlled environment. This procedure is repeated on the following four days.
# The effect of each treatment is then assessed using the following method: adjusted effect =(Mean treatment site reading)/(Mean pretreatment site reading) [formula]
# This value is calculated for each treatment, for each timepoint on each day of treatment for each panellist, resulting in a final mean value for the adjusted effect for the entire panel also being obtained by calculation.
# The following treatments were applied in this test • 1. 5mM Sorensons phosphate buffer pH 7.00 + 2% Nipagin • 2. 100mM Sodium dodecoyl lactylate in buffer (a concentration of 3.0%) • 3. No treatment
# The results are shown in the table below which records the mean adjusted SKICON 200 readings (i.e. proportional to initial skin conductivity = moisturisation) at hourly periods up to 4 hours.
# [3] = Deposition of radiolabelled lactylate from diluted detergent composition after rinse-off, scintillation count of tape strips; format: in vitro ADME, pig; conditions: result in words, 0.12M, 100 µl, left for 10 seconds and rinsed off
# Procedure: Radiolabelled sodium lauroyl lactylate, as used in Example 2, was incorporated into a detergent composition containing
# This solution was diluted with about four times its own volume of water, so that the concentration of sodium lauroyl lactylate was 0.12M.
# 100 µl quantities of this diluted solution were applied to test pieces of pig ear, left for 10 seconds and rinsed off. Excess water was removed with cotton wool, and nine tape strips were taken. All the tape strips were placed in a vial with phosphate buffer and scintillation fluid. The radiolabel content was measured using a scintillation counter.
# [4] = Hydrolysis in skin: thin-layer chromatography of radiolabel extracted from tape strips; format: in vitro ADME, pig; conditions: after six hours; for metabolised at 6 h / remaining at 6 h: pig, ear skin, topical or ocular, mean of three repeats; for metabolised at 6 h: spot of hydrolysis products, read-out: % of total label, peak 1; for remaining at 6 h: spot of the applied compound itself, read-out: % of total label, peak 2
# Procedure: In a similar experiment nine tape strips were taken after six hours. The first three strips were incubated in 3ml of phosphate buffer. The next three strips and the final three strips were likewise incubated. After 30 minutes the buffer solutions were spotted onto a thin-layer chromatography plate (bearing silica gel as the stationary phase).
# The plate was eluted with 80:20:2 hexane:ether:acetic acid mixture. The spots on the plate were detected and quantified by their emitted radiation. […] The results (mean of three repeats) were:
# The results of thin layer chromatography, showing the extent of hydrolysis were: […]
# [5] = Lactic acid on tape strips from volar forearm after lauryl lactate dispersion; format: in vivo, human; set-up: unit not given here; conditions: 2% by weight dispersion in water, 100 µl
# Procedure: This dispersion was tested on the volar forearm of a human volunteer. 100 µl of the dispersion was applied to each of three areas (15cm^2) on the volar forearm, rubbed in and allowed to dry. Ten Desquarne tape strips were taken fropm a fourth, untreated area. After 1 hour ten tape strips were taken from one treated area. Ten tape strips were taken from the other treated areas after 3 and 8 hours respectively. The tape strips taken after 1 hour and 3 hours were stored at room temperature for the rest of the 8 hour period, allowing enzymic hydrolysis.
# The amount of lactic acid on each tape strip was determined, by the procedure quoted in Example 1. […] Moreover, this is at all levels, indicating penetration of the lactate ester into the skin where it is hydrolysed.
compound,measurement,setting,value
"CC(O)C(=O)O (centres unmarked) [G, sodium lactate, reference compound]",penetration into the stratum corneum,[1],virtually no penetration occurs
"CCCCCCCCCCCC(=O)OC(C)C(=O)O (centres unmarked) [Na Acyl Lactylate, Sodium dodecoyl lactylate]",mean adjusted SKICON 200 readings,[2]; T=0 Hr,1.00
same,mean adjusted SKICON 200 readings,[2]; T=1 Hr,1.27
same,mean adjusted SKICON 200 readings,[2]; T=2 Hr,1.30
same,mean adjusted SKICON 200 readings,[2]; T=4 Hr,1.31
same,moisturisation of the skin,"[2]; result in words, compared with the buffer alone",significant moisturisation of the skin was achieved
"CCCCCCCCCCCC(=O)OC(C)C(=O)O (centres unmarked) [Lauroyl lactylate, Sodium lauroyl lactylate]",deposition onto the skin,[3],a small proportion of the radiolabelled lactylate had deposited onto the skin
same,metabolised at 6 h,[4]; Tapes 1-3,13.1%
same,remaining at 6 h,[4]; Tapes 1-3,8.9%
same,metabolised at 6 h,[4]; Tapes 4-6,35.1%
same,remaining at 6 h,[4]; Tapes 4-6,64.9%
same,metabolised at 6 h,[4]; Tapes 7-9,45.2%
same,remaining at 6 h,[4]; Tapes 7-9,54.8%
same,hydrolysis in the skin,[4]; result in words,had occurred in each instance and had occurred to the greatest extent with the material which had penetrated furthest into the skin
CCCCCCCCCCCCOC(=O)C(C)O (centres unmarked) [Lauryl lactate],amount of lactic acid on each tape strip,"[5]; 1 Hour, Tape No 1",0.289
same,amount of lactic acid on each tape strip,"[5]; 1 Hour, Tape No 2",0.361
same,amount of lactic acid on each tape strip,"[5]; 1 Hour, Tape No 3",0.217
same,amount of lactic acid on each tape strip,"[5]; 1 Hour, Tape No 4",0.124
same,amount of lactic acid on each tape strip,"[5]; 1 Hour, Tape No 5",0.192
same,amount of lactic acid on each tape strip,"[5]; 1 Hour, Tape No 6",0.201
same,amount of lactic acid on each tape strip,"[5]; 1 Hour, Tape No 7",0.179
same,amount of lactic acid on each tape strip,"[5]; 1 Hour, Tape No 8",0.177
same,amount of lactic acid on each tape strip,"[5]; 1 Hour, Tape No 9",0.211
same,amount of lactic acid on each tape strip,"[5]; 1 Hour, Tape No 10",0.169
same,amount of lactic acid on each tape strip,"[5]; 3 Hours, Tape No 1",0.282
same,amount of lactic acid on each tape strip,"[5]; 3 Hours, Tape No 2",0.250
same,amount of lactic acid on each tape strip,"[5]; 3 Hours, Tape No 3",0.252
same,amount of lactic acid on each tape strip,"[5]; 3 Hours, Tape No 4",0.262
same,amount of lactic acid on each tape strip,"[5]; 3 Hours, Tape No 5",0.485
same,amount of lactic acid on each tape strip,"[5]; 3 Hours, Tape No 6",0.487
same,amount of lactic acid on each tape strip,"[5]; 3 Hours, Tape No 7",0.271
same,amount of lactic acid on each tape strip,"[5]; 3 Hours, Tape No 8",0.246
same,amount of lactic acid on each tape strip,"[5]; 3 Hours, Tape No 9",0.254
same,amount of lactic acid on each tape strip,"[5]; 3 Hours, Tape No 10",0.269
same,amount of lactic acid on each tape strip,"[5]; 8 Hours, Tape No 1",0.260
same,amount of lactic acid on each tape strip,"[5]; 8 Hours, Tape No 2",0.210
same,amount of lactic acid on each tape strip,"[5]; 8 Hours, Tape No 3",0.250
same,amount of lactic acid on each tape strip,"[5]; 8 Hours, Tape No 4",0.222
same,amount of lactic acid on each tape strip,"[5]; 8 Hours, Tape No 5",0.259
same,amount of lactic acid on each tape strip,"[5]; 8 Hours, Tape No 6",0.230
same,amount of lactic acid on each tape strip,"[5]; 8 Hours, Tape No 7",0.241
same,amount of lactic acid on each tape strip,"[5]; 8 Hours, Tape No 8",0.234
same,amount of lactic acid on each tape strip,"[5]; 8 Hours, Tape No 9",0.194
same,amount of lactic acid on each tape strip,"[5]; 8 Hours, Tape No 10",0.449
